Values joined by “and” are separate entries in the source; they are usually repeats but may differ in a detail not shown here. Equal entries are not always repeated.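 Step 1: Grow cells in 96-well plates. Step 2: Expose to compound for 48 hours at 5 concentrations. Step 3: Interpolate endpoints linearly; if unreached, use highest concentration. Here, GI50 denotes the concentration required for 50% inhibition of growth. TGI: total growth inhibition.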
How the values were obtained:
Experiment in all cases: NCI-60 cell line screen, 48 h
[1] = system: SK-OV-3 ovarian
[2] = system: MDA-MB-435
[3] = system: MALME-3M melanoma
[4] = system: SW-620 colon
[5] = system: NCI-H522 lung
[6] = system: HOP-62 NSCLC
[7] = system: SNB-75 CNS
[8] = system: COLO 205 colon
[9] = system: KM12 colon
[10] = system: UO-31 renal

## CC1(C)N=C(N)N=C(N)N1c1cc(Cl)ccc1Cl
[1]
  GI50: > 100 µM
  TGI: > 100 µM
[2]
  GI50: > 100 µM
  TGI: > 100 µM
[3]
  GI50: 59.1 µM
  TGI: > 100 µM
[4]
  GI50: 74.5 µM
  TGI: > 100 µM
[5]
  GI50: 46 µM
  TGI: > 100 µM
[6]
  GI50: > 100 µM
  TGI: > 100 µM
[7]
  GI50: > 100 µM
  TGI: > 100 µM
[8]
  GI50: > 100 µM
  TGI: > 100 µM
[9]
  GI50: > 100 µM
  TGI: > 100 µM
[10]
  GI50: > 100 µM
  TGI: > 100 µM

## COc1ccc(-c2nc(-c3ccccc3)c(-c3ccccc3)n2C2CC2)cc1OC1CCCC1
[1]
  GI50: > 165 µM
  TGI: > 165 µM
[2]
  GI50: 147 µM
  TGI: > 165 µM
[4]
  GI50: 53.7 µM
  TGI: > 165 µM
[5]
  GI50: 62.1 µM
  TGI: > 165 µM
[6]
  GI50: > 165 µM
  TGI: > 165 µM
[7]
  GI50: 48.4 µM
  TGI: > 165 µM
[8]
  GI50: 51.3 µM
  TGI: > 165 µM
[9]
  GI50: 50.9 µM
  TGI: > 165 µM
[10]
  GI50: 64.6 µM
  TGI: > 165 µM

## O=[N+]([O-])/C=C/c1c[nH]c2ccccc12
[1]
  GI50: 15.2 µM
  TGI: 29.1 µM
[2]
  GI50: 2.15 µM
  TGI: 5.06 µM
[3]
  GI50: 19 µM
  TGI: 35.7 µM
[4]
  GI50: 15.2 µM
  TGI: 57.5 µM
[5]
  GI50: 14.8 µM
  TGI: 28.9 µM
[6]
  GI50: 21.4 µM
  TGI: 36.5 µM
[7]
  GI50: 4.45 µM
  TGI: 16.3 µM
[8]
  GI50: 15.6 µM
  TGI: 30.6 µM
[9]
  GI50: 14.6 µM
  TGI: 31 µM
[10]
  GI50: 13.4 µM
  TGI: 27.2 µM

## CC(C)(O)C1OCC(C2CCC3(C)C4=CCC5C(C)(C)C(O)CCC5(C)C4CCC23C)CC1O (stereo not drawn)
[1]
  TGI: 31.5 µM
[2]
  TGI: 28.8 µM
[3]
  TGI: 39.5 µM
[4]
  TGI: 28.5 µM
[5]
  TGI: 23.6 µM
[7]
  TGI: 34.6 µM
[8]
  TGI: 31.5 µM
[9]
  TGI: 27 µM
[10]
  TGI: 41.8 µM

## CC(=O)OC(C)(C)/C=C/C(=O)[C@](C)(O)[C@H]1[C@H](O)C[C@@]2(C)[C@@H]3CC=C4[C@@H](C[C@H](O)C(=O)C4(C)C)[C@]3(C)C(=O)C[C@]12C
[1]
  TGI: < 0.0234 µM
[2]
  TGI: 2.46 µM
[3]
  TGI: 1.55 µM
[4]
  TGI: 7.54 µM
[5]
  TGI: < 0.01 µM
[7]
  TGI: < 0.01 µM
[9]
  TGI: 13.6 µM
[10]
  TGI: < 0.0167 µM

## COc1ccc(-c2cn[nH]c2-c2cc(OC)c(OC)c(OC)c2)cc1N
[1]
  GI50: < 0.01 µM and 0.0833 µM
  TGI: > 100 µM
[2]
  GI50: < 0.01 µM
  TGI: < 0.01 µM and 0.0309 µM
[3]
  TGI: > 100 µM
[4]
  GI50: < 0.01 µM and 0.0397 µM
  TGI: > 100 µM
[5]
  GI50: < 0.01 µM
[6]
  GI50: < 0.01 µM and 0.0766 µM
  TGI: > 100 µM
[7]
  GI50: < 0.01 µM
  TGI: > 100 µM
[8]
  GI50: < 0.01 µM and 0.0347 µM
[9]
  GI50: < 0.01 µM and 0.026 µM
  TGI: > 100 µM
[10]
  GI50: 0.191 µM and 0.118 µM
  TGI: > 100 µM

## O=C1OC(=O)C2C1C1(c3ccccc3)C(c3ccccc3)=C(c3ccccc3)C2(c2ccccc2)S1=O (stereo not drawn)
[1]
  GI50: > 100 µM
  TGI: > 100 µM
[2]
  GI50: > 100 µM
  TGI: > 100 µM
[3]
  GI50: > 100 µM
  TGI: > 100 µM
[4]
  GI50: > 100 µM
  TGI: > 100 µM
[5]
  GI50: > 100 µM
  TGI: > 100 µM
[6]
  GI50: > 100 µM
  TGI: > 100 µM
[7]
  GI50: > 100 µM
  TGI: > 100 µM
[8]
  GI50: > 100 µM
  TGI: > 100 µM
[9]
  GI50: > 100 µM
  TGI: > 100 µM
[10]
  GI50: > 100 µM
  TGI: > 100 µM

## O=C(Nc1ccc(Cl)cc1)c1cc2ccccc2cc1O
[1]
  GI50: 1.91 µM
  TGI: 9.61 µM
[2]
  GI50: 3.84 µM
  TGI: > 100 µM
[3]
  GI50: 1.67 µM
  TGI: 95.6 µM
[4]
  GI50: 3.62 µM
  TGI: > 100 µM
[5]
  GI50: 1.25 µM
  TGI: 6.88 µM
[6]
  GI50: 3.34 µM
  TGI: > 100 µM
[7]
  GI50: 22.2 µM
  TGI: > 100 µM
[8]
  GI50: 3.22 µM
  TGI: 18.7 µM
[9]
  GI50: 2.81 µM
  TGI: > 100 µM
[10]
  GI50: 2.03 µM
  TGI: > 100 µM

## O=C(NC(=S)Nc1ccc(Cl)cc1)c1ccccc1
[1]
  GI50: > 100 µM
  TGI: > 100 µM
[2]
  GI50: > 100 µM
  TGI: > 100 µM
[3]
  GI50: > 100 µM
  TGI: > 100 µM
[4]
  GI50: > 100 µM
  TGI: > 100 µM
[5]
  GI50: > 100 µM
  TGI: > 100 µM
[6]
  GI50: > 61.7 µM
  TGI: > 100 µM
[7]
  GI50: > 49.7 µM
  TGI: > 100 µM
[8]
  GI50: > 100 µM
  TGI: > 100 µM
[9]
  GI50: > 100 µM
  TGI: > 100 µM
[10]
  GI50: 99 µM
  TGI: > 100 µM

## O=C(NOCC1CC1)c1ccc(F)c(F)c1Nc1ccc(I)cc1Cl
[1]
  GI50: 4.35 µM
  TGI: > 100 µM
[2]
  GI50: 0.298 µM
  TGI: > 55.5 µM
[3]
  GI50: 0.0228 µM
  TGI: 0.0674 µM
[4]
  GI50: 0.141 µM
  TGI: > 39.3 µM
[5]
  GI50: 1.94 µM
  TGI: 8.51 µM
[6]
  GI50: 2.04 µM
  TGI: > 100 µM
[7]
  GI50: 2.15 µM
  TGI: > 45.2 µM
[8]
  GI50: 0.0704 µM
  TGI: 3.54 µM
[9]
  GI50: 0.649 µM
  TGI: 7.34 µM
[10]
  GI50: 1.23 µM
  TGI: 6.62 µM

## C[C@H]1CCC/C=C/[C@@H]2C[C@H](O)C[C@H]2[C@H](O)[C@@H](S(=O)CCN(C)C)CC(=O)O1 (stereo partly drawn)
[1]
  GI50: 0.295 µM
  TGI: > 67.6 µM
[2]
  GI50: 0.193 µM
  TGI: > 100 µM
[3]
  GI50: 0.174 µM
  TGI: 0.42 µM
[4]
  GI50: 0.277 µM
[5]
  GI50: 0.0677 µM
  TGI: 0.191 µM
[6]
  GI50: 0.458 µM
  TGI: > 63.4 µM
[7]
  GI50: 0.0332 µM
[8]
  GI50: 0.107 µM
  TGI: 0.876 µM
[9]
  GI50: 0.0351 µM
  TGI: 0.154 µM
[10]
  GI50: 0.184 µM
  TGI: > 100 µM

## CC1(C)OCC(CO)(Nc2nc(N3CC3)nc(N3CC3)n2)CO1
[1]
  TGI: 34.2 µM
[2]
  TGI: 46.4 µM
[3]
  TGI: 42.1 µM
[4]
  TGI: 64.1 µM
[5]
  TGI: 33.8 µM
[6]
  TGI: 30.9 µM
[7]
  TGI: 33.1 µM
[8]
  TGI: 60.9 µM
[9]
  TGI: 43.3 µM
[10]
  TGI: 23.1 µM

## C=C(CN1CCc2ccccc2C1)c1ccc(C(=O)Nc2ccc(N)cc2)cc1
[1]
  GI50: 19.5 µM
  TGI: 53.7 µM
[2]
  GI50: 3.11 µM
  TGI: 11.3 µM
[3]
  GI50: 18.3 µM
  TGI: 61 µM
[4]
  GI50: 30.5 µM
  TGI: > 100 µM
[5]
  GI50: 3.89 µM
  TGI: 21 µM
[6]
  GI50: 28.5 µM
  TGI: > 100 µM
[7]
  GI50: 9.87 µM
  TGI: 53.6 µM
[8]
  GI50: 22.7 µM
  TGI: 60.6 µM
[9]
  GI50: 20.4 µM
  TGI: 48.4 µM
[10]
  GI50: 3.93 µM
  TGI: 30.5 µM

## O=C1C=Cc2ccccc2/C1=C/c1[nH]c(=O)[nH]c1O
[1]
  GI50: 3.66 µM
  TGI: 23.2 µM
[2]
  GI50: 1.76 µM
  TGI: 4.64 µM
[3]
  GI50: 4.19 µM
  TGI: 88.2 µM
[5]
  GI50: 1.3 µM
  TGI: 3.89 µM
[6]
  GI50: 7.5 µM
  TGI: 35 µM
[7]
  GI50: 2.14 µM
  TGI: 7.44 µM
[8]
  GI50: 3.59 µM
  TGI: 31.9 µM
[9]
  GI50: 2.99 µM
  TGI: 9.34 µM
[10]
  GI50: 1.78 µM
  TGI: 28.5 µM

Reference: PubChem BioAssay (NCI)
